Key:
Format in all cases: toxicity, cell-based
[1] = tested on: U2OS; test: Incucyte cell viability with U2OS; details: human, 10 µM, compound concentration 10 uM
[2] = tested on: HEK-293T; test: Incucyte cell viability with HEK293T; details: human, 10 µM, compound concentration 10 uM
[3] = tested on: Fibroblast; test: Incucyte cell viability with human fibroblast; details: 10 µM, compound concentration 10 uM
[4] = 0 h, replicate number 1, timepoint 0 hours
[5] = 0 h, replicate number 2, timepoint 0 hours
[6] = 6 h, replicate number 1, timepoint 6 hours
[7] = 12 h, replicate number 1, timepoint 12 hours
[8] = 18 h, replicate number 1, timepoint 18 hours
[9] = 24 h, replicate number 1, timepoint 24 hours
[10] = 24 h, replicate number 2, timepoint 24 hours
[11] = 6 h, replicate number 2, timepoint 6 hours
[12] = 12 h, replicate number 2, timepoint 12 hours
[13] = 18 h, replicate number 2, timepoint 18 hours
Note: filed as whole numbers so only -1 and 0 and 1 occur.

SMILES | Growth Rate [1, 4] | Growth Rate [1, 6] | Growth Rate [1, 7] | Growth Rate [1, 8] | Growth Rate [1, 9] | Growth Rate [2, 4] | Growth Rate [2, 6] | Growth Rate [2, 7] | Growth Rate [2, 8] | Growth Rate [2, 9] | Growth Rate [2, 10] | Growth Rate [3, 4] | Growth Rate [3, 11] | Growth Rate [3, 7] | Growth Rate [3, 8] | Growth Rate [3, 9] | Growth Rate [1, 11] | Growth Rate [3, 12] | Growth Rate [3, 13] | Growth Rate [3, 6] | further results
O=C(NNS(=O)(=O)c1ccccc1)c1cc(-c2ccnnc2)ccc1F [WM-2474] | 1 | 0 | 0 | 0 | 1 | 0 | 1 | 1 | 1 | 0 | 1 | 0 | 0 | 1 | 1 | 1 | – | – | – | – | Growth Rate [1, 5]: 0; Growth Rate [1, 10]: 0
COc1cccc(CNC(=O)c2nc3scc(COCc4ccc(C(=O)O)cc4)c3c(=O)[nH]2)c1 [T-26c] | 0 | 1 | 1 | 1 | 1 | 0 | – | – | 1 | 1 | – | – | 0 | 1 | 1 | 1 | 0 | 0 | 0 | – | Growth Rate [1, 12]: 0; Growth Rate [2, 5]: 1; Growth Rate [3, 5]: 0
COc1ccc(CCc2nc3cc(-c4c(C)noc4C)ccc3n2C[C@H](C)N2CCOCC2)cc1Cl | 1 | 0 | 1 | 1 | 1 | – | 0 | 1 | 0 | 0 | – | 0 | 0 | 1 | 1 | 1 | – | – | – | 1 | Growth Rate [1, 5]: 0; Growth Rate [2, 5]: 1; Growth Rate [2, 11]: 1; Growth Rate [2, 12]: 0; Growth Rate [2, 13]: 1
CN(C)CCCN1c2ccccc2CCc2ccccc21.Cl [IMIPRAMINE HYDROCHLORIDE] | – | – | 1 | 1 | 1 | – | 0 | 0 | 0 | 0 | – | 0 | – | 0 | 1 | 0 | – | – | 0 | 0 | Growth Rate [1, 5]: 0; Growth Rate [2, 5]: 1
NC(=O)[C@@H]1CCCN1C(=O)[C@H](Cc1cnc[nH]1)NC(=O)[C@@H]1CCC(=O)N1 [PROTIRELIN] | 0 | 1 | 0 | 0 | 0 | 0 | 1 | 1 | 1 | 1 | 0 | 0 | 0 | – | 1 | 1 | 0 | 1 | 0 | – | Growth Rate [1, 13]: 1; Growth Rate [3, 5]: 1; Growth Rate [3, 10]: 0
CC(C)C[C@H](NC(=O)N1CCCCCC1)C(=O)N[C@H](Cc1cn(C)c2ccccc12)C(=O)N[C@H](Cc1ccccn1)C(=O)O | 0 | – | – | 1 | 1 | 0 | 0 | 0 | 1 | 1 | – | 0 | 0 | – | 1 | 1 | 1 | 0 | – | – | Growth Rate [1, 12]: 1; Growth Rate [2, 11]: 1; Growth Rate [2, 12]: 1; Growth Rate [3, 10]: 0
C[C@@H](NC(=O)Nc1cc2[nH]ncc2c(CO)n1)c1ccccc1 [ERKi] | 0 | 0 | 0 | 0 | 0 | 0 | – | – | – | – | 1 | 0 | – | 1 | 1 | 0 | – | – | – | – | Growth Rate [3, 10]: 1
OCCn1cc(-c2ccc3c(c2)CCC3=NO)c(-c2ccncc2)n1 | 1 | 1 | 1 | 1 | 1 | 0 | – | 1 | 0 | 0 | 1 | 0 | 1 | 1 | 1 | 1 | – | 0 | 0 | – | Growth Rate [1, 13]: 0; Growth Rate [2, 13]: 1
NS(=O)(=O)c1cc(NC(=O)Cc2ccccc2)ccc1Oc1cccc(Cl)c1 [BAY-1797] | – | 0 | 1 | 0 | 0 | 0 | 0 | 0 | 0 | 0 | – | 0 | – | – | – | 1 | – | 1 | 1 | – | Growth Rate [1, 12]: 0; Growth Rate [1, 13]: 1; Growth Rate [1, 10]: 1; Growth Rate [2, 11]: 1; Growth Rate [2, 12]: 1
CC(C)NCC(O)COc1cccc2ccccc12.Cl (stereo not given) [PROPRANOLOL HYDROCHLORIDE] | 0 | 0 | 1 | 1 | 1 | – | 0 | 0 | 0 | 0 | – | 0 | 0 | 1 | 1 | 1 | – | 0 | 0 | 1 | Growth Rate [2, 5]: 0; Growth Rate [2, 11]: 1; Growth Rate [3, 10]: 0
CC(C)c1ccc(CC(=O)N2CCC[C@@H](c3cccc(OC(C)(C)C(=O)O)c3)C2)cc1 | 0 | – | – | 1 | 1 | 1 | 0 | 1 | 0 | 0 | 1 | – | – | 1 | 0 | 0 | 0 | 0 | – | 0 | Growth Rate [1, 12]: 1; Growth Rate [2, 5]: 0; Growth Rate [2, 11]: 1
COc1ccc(Br)cc1S(=O)(=O)NC(=O)/C=C/c1ccccc1Cc1ccc2ccccc2c1 | 0 | – | – | 1 | 1 | – | 0 | 0 | 0 | 0 | 1 | 1 | 1 | 1 | 0 | 0 | 0 | – | 1 | 0 | Growth Rate [1, 12]: 1; Growth Rate [1, 10]: 0; Growth Rate [2, 5]: 0; Growth Rate [2, 11]: 1; Growth Rate [2, 12]: 1; Growth Rate [2, 13]: 1; Growth Rate [3, 5]: 0; Growth Rate [3, 10]: 1
Cc1cc(OCC(=O)O)cc(C)c1Cc1ccc(O)c(C(C)C)c1 [SOBETIROME] | – | – | 1 | 0 | 1 | 0 | 0 | 0 | 0 | 0 | 1 | 0 | 0 | – | 1 | 0 | 0 | 0 | – | -1 | Growth Rate [1, 5]: 0; Growth Rate [1, 13]: 1; Growth Rate [2, 13]: 1; Growth Rate [3, 10]: 1
CC[C@@H]1CN(C(=O)NCC(F)(F)F)C[C@@H]1c1cnc2cnc3[nH]ccc3n12 [UPADACITINIB] | 0 | 0 | 0 | 0 | 0 | 0 | – | – | – | – | 1 | 0 | – | 1 | 1 | 1 | – | – | – | 1 | Growth Rate [1, 5]: 1; Growth Rate [1, 12]: 1
